Experiments:
Glucocorticoid receptor = biological target: T1, Glucocorticoid receptor (Homo sapiens, UniProt P04150); details: hela s3; also: in other assays of this panel Not Active means under 50% inhibition at 10 µM
T1 sequence (P04150 whole entry): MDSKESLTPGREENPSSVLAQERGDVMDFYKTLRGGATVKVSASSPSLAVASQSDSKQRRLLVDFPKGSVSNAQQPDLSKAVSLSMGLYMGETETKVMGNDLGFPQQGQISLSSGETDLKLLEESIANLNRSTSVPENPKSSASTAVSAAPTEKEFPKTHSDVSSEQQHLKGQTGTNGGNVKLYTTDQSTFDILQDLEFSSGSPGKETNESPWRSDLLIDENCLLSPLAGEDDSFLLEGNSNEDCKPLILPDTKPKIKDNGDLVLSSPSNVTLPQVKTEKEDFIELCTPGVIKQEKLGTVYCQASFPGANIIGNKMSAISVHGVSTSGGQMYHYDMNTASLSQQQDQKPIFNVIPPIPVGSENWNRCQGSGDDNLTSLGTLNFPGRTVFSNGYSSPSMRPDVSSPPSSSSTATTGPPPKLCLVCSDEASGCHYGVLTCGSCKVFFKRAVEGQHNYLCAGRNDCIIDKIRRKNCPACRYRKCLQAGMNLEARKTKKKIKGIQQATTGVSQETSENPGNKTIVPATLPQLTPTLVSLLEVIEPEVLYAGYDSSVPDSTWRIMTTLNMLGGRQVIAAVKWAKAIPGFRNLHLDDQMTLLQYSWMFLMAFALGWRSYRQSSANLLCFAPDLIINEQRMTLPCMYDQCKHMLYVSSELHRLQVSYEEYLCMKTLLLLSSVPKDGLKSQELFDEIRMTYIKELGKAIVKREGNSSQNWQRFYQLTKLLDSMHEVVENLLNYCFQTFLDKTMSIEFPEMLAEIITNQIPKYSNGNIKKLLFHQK

[1] = DRUGMATRIX: GABAA, Muscimol, Central radioligand binding (ligand: [3H] Muscimol); assay type: cell membranes, Rattus norvegicus, Wistar, Brain, Membrane; details: Not Active = under 50% inhibition at 10 µM
[2] = biological target: T2, Polyunsaturated fatty acid lipoxygenase ALOX15 (Oryctolagus cuniculus, UniProt P12530); experiment: biochemical; assay type: tissue-based, Reticulocytes; details: reticulocytes;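 also: inhibition of 15-lipoxygenase enzyme activity measured with linoleic acid as the substrate; in other assays of this panel Not Active means under 50% inhibition at 10 µM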
T2 sequence (P12530 whole entry): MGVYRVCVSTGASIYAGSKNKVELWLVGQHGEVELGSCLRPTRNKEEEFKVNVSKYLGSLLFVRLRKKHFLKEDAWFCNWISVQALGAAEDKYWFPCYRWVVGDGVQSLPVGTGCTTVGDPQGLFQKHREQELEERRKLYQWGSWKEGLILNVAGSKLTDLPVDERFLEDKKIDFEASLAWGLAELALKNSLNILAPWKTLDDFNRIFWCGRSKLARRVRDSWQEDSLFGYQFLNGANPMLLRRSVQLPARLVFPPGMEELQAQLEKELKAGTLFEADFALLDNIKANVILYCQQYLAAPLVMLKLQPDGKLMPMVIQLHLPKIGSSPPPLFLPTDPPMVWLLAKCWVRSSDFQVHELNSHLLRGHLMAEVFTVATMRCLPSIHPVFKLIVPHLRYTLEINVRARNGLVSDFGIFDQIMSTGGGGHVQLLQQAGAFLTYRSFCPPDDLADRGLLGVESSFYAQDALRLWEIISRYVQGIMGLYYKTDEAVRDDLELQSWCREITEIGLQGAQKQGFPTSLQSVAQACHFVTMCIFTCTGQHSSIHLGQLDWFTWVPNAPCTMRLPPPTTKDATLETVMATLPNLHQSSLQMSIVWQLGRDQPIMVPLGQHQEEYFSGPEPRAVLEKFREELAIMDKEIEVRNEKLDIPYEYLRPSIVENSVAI

[3] = DRUGMATRIX: Sodium/nucleoside co-transporter radioligand binding (ligand: nitrobenzylthioinosine); assay type: cell membranes, Cavia porcellus, Dunkin-Hartley, Cerebral cortex, Membrane; details: Not Active = under 50% inhibition at 10 µM
Cathepsin G = biological target: T3, Cathepsin G (Homo sapiens, UniProt P08311); assay type: tissue-based; details: neutrophil;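 also: inhibition of Cathepsin G enzyme activity, tested on an AMC-conjugated peptide substrate; in other assays of this panel Not Active means under 50% inhibition at 10 µM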
T3 sequence (P08311 whole entry): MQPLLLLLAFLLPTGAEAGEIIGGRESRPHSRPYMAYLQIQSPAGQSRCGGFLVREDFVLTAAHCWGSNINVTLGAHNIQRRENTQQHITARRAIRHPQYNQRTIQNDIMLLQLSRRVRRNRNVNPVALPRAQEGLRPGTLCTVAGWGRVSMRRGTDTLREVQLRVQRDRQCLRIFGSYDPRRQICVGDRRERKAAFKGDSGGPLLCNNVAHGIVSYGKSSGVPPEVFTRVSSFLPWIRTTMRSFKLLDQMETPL

[4] = biological target: Delta-type opioid receptor (Homo sapiens, UniProt P41143); assay type: cell membranes, HEK293, Membrane; details: hek293; also: in other assays of this panel Not Active means under 50% inhibition at 10 µM
Melanocortin receptor 4 = Melanocortin receptor 4 (Homo sapiens, UniProt P32245); assay type: cell membranes, Membrane; details: hek293; also: in other assays of this panel Not Active means under 50% inhibition at 10 µM
Estrogen receptor = biological target: T4, Estrogen receptor (Homo sapiens, UniProt P03372); details: sf9; also: in other assays of this panel Not Active means under 50% inhibition at 10 µM
T4 sequence (P03372 whole entry): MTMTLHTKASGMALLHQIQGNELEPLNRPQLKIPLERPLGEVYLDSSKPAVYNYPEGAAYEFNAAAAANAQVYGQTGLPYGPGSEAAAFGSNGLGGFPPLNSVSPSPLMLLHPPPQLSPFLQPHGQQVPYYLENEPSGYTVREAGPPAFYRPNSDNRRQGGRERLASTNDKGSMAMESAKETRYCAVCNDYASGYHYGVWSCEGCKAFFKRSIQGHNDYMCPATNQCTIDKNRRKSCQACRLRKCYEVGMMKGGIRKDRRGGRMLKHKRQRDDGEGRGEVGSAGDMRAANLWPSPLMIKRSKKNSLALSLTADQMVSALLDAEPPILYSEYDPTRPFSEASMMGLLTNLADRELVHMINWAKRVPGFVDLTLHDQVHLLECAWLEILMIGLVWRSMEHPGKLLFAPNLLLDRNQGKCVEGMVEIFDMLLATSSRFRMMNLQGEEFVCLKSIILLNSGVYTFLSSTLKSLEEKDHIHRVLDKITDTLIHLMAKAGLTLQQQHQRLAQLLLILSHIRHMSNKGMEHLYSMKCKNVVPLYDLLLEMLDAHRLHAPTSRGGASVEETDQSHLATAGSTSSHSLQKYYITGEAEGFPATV

Melanocortin receptor 4, sequence (P32245 whole entry): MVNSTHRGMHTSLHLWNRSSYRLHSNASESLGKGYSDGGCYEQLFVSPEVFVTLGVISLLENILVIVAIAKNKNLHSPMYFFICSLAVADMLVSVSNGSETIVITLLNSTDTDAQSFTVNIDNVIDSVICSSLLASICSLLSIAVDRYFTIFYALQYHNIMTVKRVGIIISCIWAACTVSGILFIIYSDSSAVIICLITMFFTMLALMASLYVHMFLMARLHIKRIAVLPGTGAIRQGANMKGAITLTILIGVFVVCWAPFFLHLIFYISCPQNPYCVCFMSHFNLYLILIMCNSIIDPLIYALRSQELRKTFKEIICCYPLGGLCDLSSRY
Delta-type opioid receptor, sequence (P41143 whole entry): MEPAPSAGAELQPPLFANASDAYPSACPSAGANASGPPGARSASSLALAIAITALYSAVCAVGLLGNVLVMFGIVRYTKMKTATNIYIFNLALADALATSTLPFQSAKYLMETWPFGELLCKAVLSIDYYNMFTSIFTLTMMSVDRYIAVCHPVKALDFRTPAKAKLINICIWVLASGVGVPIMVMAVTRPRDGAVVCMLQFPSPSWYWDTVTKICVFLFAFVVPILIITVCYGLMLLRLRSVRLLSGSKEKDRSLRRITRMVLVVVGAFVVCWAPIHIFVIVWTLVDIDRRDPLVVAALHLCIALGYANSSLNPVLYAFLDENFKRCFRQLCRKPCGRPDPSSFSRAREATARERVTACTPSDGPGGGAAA

Structure (SMILES)	IC50 (Glucocorticoid receptor)	IC50 [1]	Ki [1]	IC50 [2]	IC50 [3]	Ki [3]	IC50 (Cathepsin G)	IC50 [4]	IC50 (Melanocortin receptor 4)	IC50 (Estrogen receptor)	IC50 ([3]; read-out: IC50) [nM]	Ki ([3]; read-out: Ki) [nM]
CNS(=O)(=O)Cc1ccc2[nH]cc(CCN(C)C)c2c1	Not Active	Not Active	Not Active	Not Active	Not Active	Not Active	Not Active	Not Active	Not Active	–	–	–
CCCc1nn(C)c2c(=O)[nH]c(-c3cc(S(=O)(=O)N4CCN(C)CC4)ccc3OCC)nc12	Not Active	Not Active	Not Active	Not Active	Not Active	Not Active	Not Active	Not Active	Not Active	–	–	–
CCOC(N)=O	–	Not Active	Not Active	Not Active	Not Active	Not Active	Not Active	Not Active	Not Active	Not Active	–	–
O=c1[nH]c2ccccc2n1CCCN1CCC(n2c(=O)[nH]c3cc(Cl)ccc32)CC1 [DOMPERIDONE]	Not Active	–	–	Not Active	–	–	Not Active	Not Active	Not Active	–	–	–
CC1=C(CC(=O)O)c2cc(F)ccc2/C1=C\c1ccc(S(C)(=O)=O)cc1 [EXISULIND]	–	Not Active	Not Active	Not Active	Not Active	Not Active	Not Active	Not Active	Not Active	Not Active	–	–
CN1C2CCCC1CC(NC(=O)c1nn(C)c3ccccc13)C2 (configuration not stated) [GRANISETRON]	–	–	–	Not Active	–	–	Not Active	Not Active	Not Active	Not Active	–	–
Nc1nc2c(c(=O)[nH]1)N(C=O)C(CNc1ccc(C(=O)N[C@@H](CCC(=O)O)C(=O)O)cc1)CN2 (some centres not stated) [LEUCOVORIN]	Not Active	Not Active	Not Active	Not Active	Not Active	Not Active	Not Active	Not Active	Not Active	–	–	–
C[C@@H](O)[C@H]1C(=O)N2C(C(=O)O)=C(S[C@@H]3CN[C@H](C(=O)N(C)C)C3)[C@H](C)[C@H]12 [MEROPENEM]	Not Active	Not Active	Not Active	Not Active	Not Active	Not Active	Not Active	Not Active	Not Active	–	–	–
CC[C@@H](CO)NC(=O)[C@@H]1C=C2c3cccc4c3c(cn4C)C[C@H]2N(C)C1 [METHYSERGIDE]	–	–	–	Not Active	–	–	Not Active	Not Active	Not Active	Not Active	–	–
CCN(CC)CC#CCOC(=O)C(O)(c1ccccc1)C1CCCCC1 (configuration not stated) [OXYBUTYNIN]	Not Active	–	–	Not Active	–	–	Not Active	Not Active	Not Active	–	–	–
CN(CCOc1ccc(CC2SC(=O)NC2=O)cc1)c1ccccn1 (configuration not stated) [ROSIGLITAZONE]	–	Not Active	Not Active	Not Active	Not Active	Not Active	Not Active	Not Active	Not Active	Not Active	–	–
CO[C@H]1C[C@@H]2CC[C@@H](C)[C@@](O)(O2)C(=O)C(=O)N2CCCC[C@H]2C(=O)O[C@H]([C@H](C)C[C@@H]2CC[C@@H](O)[C@H](OC)C2)CC(=O)[C@H](C)/C=C(\C)[C@@H](O)[C@@H](OC)C(=O)[C@H](C)C[C@H](C)/C=C/C=C/C=C/1C [SIROLIMUS]	–	Not Active	Not Active	Not Active	–	–	Not Active	Not Active	Not Active	Not Active	1080	371
Nc1ccc(S(=O)(=O)Nc2ncccn2)cc1 [SULFADIAZINE]	–	Not Active	Not Active	Not Active	Not Active	Not Active	Not Active	Not Active	Not Active	–	–	–
COc1ncnc(NS(=O)(=O)c2ccc(N)cc2)c1OC [SULFADOXINE]	–	Not Active	Not Active	Not Active	Not Active	Not Active	Not Active	Not Active	Not Active	Not Active	–	–
C[C@]12CC[C@H]3[C@@H](CCC4=CC(=O)CC[C@@]43C)[C@@H]1CC[C@@H]2O [TESTOSTERONE]	–	Not Active	Not Active	Not Active	Not Active	Not Active	Not Active	Not Active	Not Active	Not Active	–	–
CCS(=O)(=O)CCn1c([N+](=O)[O-])cnc1C [TINIDAZOLE]	–	Not Active	Not Active	Not Active	Not Active	Not Active	Not Active	Not Active	Not Active	Not Active	–	–
NC[C@H]1O[C@H](O[C@H]2[C@H](O)[C@@H](O[C@H]3O[C@H](CO)[C@@H](O)[C@H](N)[C@H]3O)[C@H](N)C[C@@H]2N)[C@H](N)C[C@@H]1O [TOBRAMYCIN]	–	Not Active	Not Active	Not Active	Not Active	Not Active	Not Active	Not Active	Not Active	Not Active	–	–
O=c1n(CCCN2CCN(c3cccc(Cl)c3)CC2)nc2ccccn12 [TRAZODONE]	–	–	–	Not Active	–	–	Not Active	Not Active	Not Active	–	–	–
O=C(O)C(Cl)(Cl)Cl [TRICHLOROACETIC ACID]	–	Not Active	Not Active	Not Active	Not Active	Not Active	Not Active	Not Active	Not Active	–	–	–
CC(=O)O[C@H]1C[C@@H]2CC[C@@H]3[C@H](CC[C@@]4(C)[C@H]3C[C@H]([N+]3(C)CCCCC3)[C@@H]4OC(C)=O)[C@@]2(C)C[C@@H]1N1CCCCC1.[Br-] [VECURONIUM BROMIDE]	–	Not Active	Not Active	Not Active	Not Active	Not Active	Not Active	Not Active	Not Active	Not Active	–	–

Reference: ChEMBL document CHEMBL1909046, “DrugMatrix in vitro pharmacology data”
